# “Also recorded” adds a separate entry of the source. Ends that are not written are not given here.
# What was measured:
# [1] = tested on: rat ventral tegmental area dopamine neurons; details: cited from earlier work
# mice = details: no photoperiod manipulation; cited from earlier work
# OxR2 [2] = target: T1, OxR2 (Homo sapiens, UniProt O43614); details: over 4 hours; cited from earlier work
# T1 sequence (O43614 1-444): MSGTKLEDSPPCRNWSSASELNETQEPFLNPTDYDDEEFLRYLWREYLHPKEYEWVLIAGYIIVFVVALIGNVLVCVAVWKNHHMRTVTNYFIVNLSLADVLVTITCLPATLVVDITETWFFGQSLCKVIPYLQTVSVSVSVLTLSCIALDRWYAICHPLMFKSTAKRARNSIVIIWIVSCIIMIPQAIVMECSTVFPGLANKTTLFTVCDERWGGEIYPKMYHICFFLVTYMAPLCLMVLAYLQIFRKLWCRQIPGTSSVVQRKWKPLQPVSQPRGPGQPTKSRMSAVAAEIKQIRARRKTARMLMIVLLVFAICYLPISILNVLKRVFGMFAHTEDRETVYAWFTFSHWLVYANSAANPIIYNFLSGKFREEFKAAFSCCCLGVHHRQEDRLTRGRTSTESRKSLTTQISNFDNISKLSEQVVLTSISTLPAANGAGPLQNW
# Wistar female rats [3] = assay: Marble burying test (MBT) in rats under shifted photoperiods
# Procedure: The marble burying test can score the ability of rats to remove slight stressors, the marbles, from their environments.
# Animals of LL-DMSO, LL-Wat, SL-DMSO, SL-Wat and SL-Almo groups were subjected to the marble burying test only once during the period of the study: at the 51st or 52nd days of treatment (see Table 2).
# The experiment was conducted in twelve Plexiglas transparent open-boxes (42 cm L, 42 cm W, 40 cm H) filled with 5 cm sawdust. Twenty-five clean glass marbles (15 mm diameter) were evenly spaced 5 cm apart on sawdust. The number of marbles buried was counted at the end of the session.
# Light intensity was 30 Lux at the center of the open-boxes.
# Animals were individually placed for a 5-min session in the experimental apparatus.
# The number of marbles was counted at the end of the session: • 1) Number of marbles not buried. • 2) Number of marbles ⅓ buried. • 3) Number of marbles ⅔ buried. • 4) Number of marbles totally buried.
# Parameters analyzed were: • 1) Unburied=the number of marbles not buried. • 2) ≧⅔ buried=number of marbles ⅔ buried+number of marbles totally buried • 3) Tot buried=number of marbles totally buried.
# Wistar female rats [4] = assay: Forced swimming test (FST) in rats under shifted photoperiods
# Procedure: Animals of CL and LL groups received the vehicles in the same conditions.
# The same animals were tested by the same experimenter on the two FST sessions. The same proportion of animals of each group was tested by each experimenter.
# The apparatus used for the experiment consisted of glass cylinders (64 cm high, 25 cm diameter) filled with 30 cm 25° C. water. The experiment was recorded with a camcorder, placed in front of the glass cylinder and connected to a screen, allowing the experimenter to watch the test online.
# Light intensity was 15-20 Lux at the level of glass cylinders.
# The behavior of the rat was measured on the second trial.
# Behavior was classified as one of three behaviors: • 1) Immobility, defined as floating in the water without struggling and using only small movements to keep the head above water. • 2) Swimming, defined as moving limbs in an active manner, more than required to keep the head above water and causing movement among quadrants of the cylinder. • 3) Climbing, defined as making active movements with forepaws moving in and out of the water, usually directed against the side of the cylinder. Parameters analyzed were:
# 1) Imo=the immobility time.
# 2) Swm=the swimming time.
# 3) Clb=the climbing time.
# A depressive-like profile is indicated by an increase of the immobility time and a decrease of either the swimming time or the climbing time. Conversely, an antidepressant-like effect is indicated by a decrease of the immobility time and an increase of either the swimming time or the climbing time.
# (§1) A difference was considered: • 1) Statistically significant: p≦0.05. • 2) Close-to-significant difference: 0.05<p≦0.10. • 3) Not significant: p>0.10.
# OxR2 [5] = target: T1, OxR2; details: cited from earlier work
# [6] = Body weight / growth rate in rats under shifted photoperiods; details: for Body weight in percent of initial body weight (d−4): short light (SL) rats, mean
# Procedure: Rats were weighed three times a week in order to examine the effect of L/D changes and the effects of treatments on the body weight.
# Animals' body weight was recorded three days per week. The body weight on day d-4 was considered as the initial body weight.
# Initial body weight (BW) between recorded on day d-4, before the initiation of L/D change analyzed by 1-factor ANOVA and Student's t-test.
# Therefore, the following analyses were performed on the BW expressed in percentage of the initial BW. • 2) Effect of L/D condition:
# The BW expressed in percentage of the initial BW was compared between by ANOVA for repeated measures (from day dl to day d54): • a) On C-Veh, LL-Veh and SL-Veh groups: overall effect. • b) On C-Veh and LL-Veh groups: effect of LL. • c) On C-Veh and SL-Veh groups: effect of SL. • d) On LL-Veh and SL-Veh groups: difference LL vs. SL. • 3) Effect of vehicle:
# OxR2 [7] = target: T1, OxR2; details: read-out: Human OxR2 FLIPR; cited from earlier work
# OxR2 [8] = target: T1, OxR2; details: cited from earlier work; remark: listed apart in the source
# recombinant human OxR1 = target: T2, recombinant human OxR1 (Homo sapiens, UniProt O43613); details: cited from earlier work
# T2 sequence (O43613 1-425): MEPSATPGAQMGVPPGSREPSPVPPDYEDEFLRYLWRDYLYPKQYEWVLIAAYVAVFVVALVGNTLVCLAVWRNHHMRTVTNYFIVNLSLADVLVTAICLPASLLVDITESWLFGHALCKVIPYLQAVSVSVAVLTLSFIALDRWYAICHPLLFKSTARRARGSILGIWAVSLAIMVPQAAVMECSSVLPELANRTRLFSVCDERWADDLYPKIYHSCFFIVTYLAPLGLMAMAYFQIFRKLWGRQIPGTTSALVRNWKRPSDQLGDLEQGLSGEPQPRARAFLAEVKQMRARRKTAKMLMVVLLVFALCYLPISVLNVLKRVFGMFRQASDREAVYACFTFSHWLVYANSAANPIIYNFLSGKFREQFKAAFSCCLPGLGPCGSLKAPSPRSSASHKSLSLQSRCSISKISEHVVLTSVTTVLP
# Wistar female rats [9] = assay: Elevated-plus maze (EPM) test in rats under shifted photoperiods
# Source text: Animals were subjected to the elevated-plus maze (EPM) test only once during the period of the study: at the 43th, 44th or 45th days of treatment (see Table 2).
# The apparatus consisted of a plus-shaped maze, elevated 50 cm from the floor, with two opposite open arms, 50×10 cm, crossed at right angles by two arms of the same dimensions, but enclosed by 40-cm-high black opaque walls with an open roof. In addition a 1-cm-high edge made of Plexiglas surrounded the open arms to avoid falls.
# Light intensity was 10 Lux at the level of open arms.
# The experiment was recorded with a camcorder, placed 1.5 m above the maze and connected to a screen, allowing the experimenter to watch the test online.
# Animals were individually placed for a 5-min session in the center of the plus-maze. The number of arm entries and the time spent in arms were recorded. An arm entry is defined as all four paws into the arm.
# Other parameters were recorded: the time spent in open arms, the number of open arm entries, the time spent in enclosed arms, the number of enclosed arm entries and the time spent in the center of the maze.
# 1) Enclosed arm entries: entries into the protected arms of the EPM
# as §1
# Wistar female rats [10] = assay: Open-field test (OFT) in rats under shifted photoperiods; details: OFT first session; for effect on the Distance: 100 mg/kg
# Procedure: Activity was tested in open boxes (open-fields: 100 cm wide, 100 cm long, 50 cm high) made of PVC. Animals' activity was recorded by an electronic videotracking detection system (Viewpoint, France) allowing to detect the distance travelled and the time spent in different parts of the open-field.
# Light intensity was 7-10 Lux at the center of the open-fields.
# Animals were individually placed for a 10-min session in the center of one quadrant of the open-field.
# Parameters analyzed were: • 1) One parameter taken as an index of locomotor-exploratory behavior: • The distance travelled in the open-field. • 2) Two parameters taken as indices of anxiety behavior: • a) % Dist Cent=the percentage of distance travelled in the central 60×60 cm area of the open-field. • b) % Time cent=the percentage of time spent in the central 60×60 cm area of the open-field.
# as §1
# rat OxR1 = target: T3, rat OxR1 (Rattus norvegicus, UniProt P56718); details: rat OxR1 cell cultures, t=30 min to t=4 hours; cited from earlier work
# T3 sequence (P56718 1-416): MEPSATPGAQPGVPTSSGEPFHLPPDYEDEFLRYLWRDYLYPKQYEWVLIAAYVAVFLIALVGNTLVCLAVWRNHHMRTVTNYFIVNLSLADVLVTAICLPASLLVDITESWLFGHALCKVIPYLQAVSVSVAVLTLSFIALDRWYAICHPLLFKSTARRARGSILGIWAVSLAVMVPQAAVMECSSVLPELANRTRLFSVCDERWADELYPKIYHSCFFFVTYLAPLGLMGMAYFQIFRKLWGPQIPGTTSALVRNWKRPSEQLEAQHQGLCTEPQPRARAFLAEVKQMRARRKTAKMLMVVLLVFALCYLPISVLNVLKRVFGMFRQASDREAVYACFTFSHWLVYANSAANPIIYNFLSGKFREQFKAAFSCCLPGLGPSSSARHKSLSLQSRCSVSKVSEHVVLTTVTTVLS
# [11] = MBT reanalysis, SL rats, almorexant
# [12] = MBT, SL-Almo vs SL-Wat, 100 mg/kg PO
# [13] = MBT, short light (SL) rats, group mean
# [14] = FST second session, SL-Almo vs SL-Wat, 100 mg/kg PO, 100 mg/kg
# [15] = FST second session, short light (SL) rats, group mean
# [16] = EPM, SL-Almo vs SL-Wat, 100 mg/kg PO, 100 mg/kg
# [17] = EPM, short light (SL) rats, group mean, water vehicle comparison groups
# [18] = SL-Almo vs SL-Wat, 100 mg/kg PO
# [19] = Short Light rats, Almorexant 100 mg/kg PO daily, group mean
compound,measurement,setting,value
"orexin A: neuropeptide of 33 amino acid residues with two disulfide bonds, derived from prepro-orexin (QPLPDCCRQKTCSCRLYELLHGAGNHAAGILTL; disulfide (positions not given here); ends not checked; also: two disulfide bonds, pairing not given here; UniProt O43612 34-66, looked up)",basal firing frequency,"[1]; 0.0001-10 micro molar orexin A, nearly half of the tested neurons",175+/−17 % of control
Cc1nc2ccc(NC(=O)Nc3ccnc4cccnc34)cc2o1 [SB-334867],immobility in Forced Swim Test and Tail Suspension Test,mice,decreased immobility
CNC(=O)[C@@H](c1ccccc1)N1CCc2cc(OC)c(OC)cc2[C@@H]1CCc1ccc(C(F)(F)F)cc1.Cl [Almorexant HCl],change of OxR2 Ki over time,OxR2 [2],decrease over 4 hours
same,marbles greater than ⅓ buried (FIG. 20),Wistar female rats [3]; [11],treated with statistical significance
same,marbles ⅓ buried (FIG. 22),Wistar female rats [3]; [11],treated statistically significantly
same,marbles ⅓ or less buried (FIG. 21),Wistar female rats [3]; [11],treated with statistical significance
same,unburied marbles,Wistar female rats [3]; [12],Reduced the increase
same,≧⅔ buried marbles,Wistar female rats [3]; [12],Reduced the decrease
same,Number of unburied marbles,Wistar female rats [3]; [13],5.3
same,number of totally buried,Wistar female rats [3]; [13],8.9
same,number of ≧⅔ buried marbles,Wistar female rats [3]; [13],16.3
same,effect on the swimming time (Swm),"Wistar female rats [4]; FST second session, SL-Almo vs SL-Wat, 100 mg/kg PO",Did not significantly modify
same,effect on the climbing time (Clb),Wistar female rats [4]; [14],increased; also recorded: Tended to increase
same,effect on the immobility time (Imo),Wistar female rats [4]; [14],Decreased
same,antidepressant-like effect,"Wistar female rats [4]; FST second session, almorexant 100 mg/kg PO",induced an antidepressant-like effect
same,Immobility time (Imo),Wistar female rats [4]; [15],111.5 s
same,climbing time (Clb),Wistar female rats [4]; [15],68.7 s
same,percentage swimming time (Swim),Wistar female rats [4]; [15],119.8 s
same,FST 2 binned climbing time (FIG. 13),"Wistar female rats [4]; double blind reanalysis of video, SL-Almo vs SL-Veh",statistically significant anti-depressant and anti-despair effect
same,Kd,"OxR2 [5]; [3H] Almorexant, human OxR2",0.17 nM
same,classification of antagonism at hOxR2,OxR2 [5],non-competitive antagonist
same,growth rate,"[6]; SL-Almo vs SL-Veh, OG (FIG. 30)",consistently found to increase growth rate back to LL levels
same,"body weight (BW, percent of initial BW)","[6]; SL-Almo vs SL-Wat, d29 to d54, 100 mg/kg PO",increased the BW
same,Body weight in percent of initial body weight (d−4),"[6]; d29-t1, during treatment",164.4%
same,Body weight in percent of initial body weight (d−4),"[6]; d31-t3, during treatment",167.0%
same,Body weight in percent of initial body weight (d−4),"[6]; d33-t5, during treatment",168.8%
same,Body weight in percent of initial body weight (d−4),"[6]; d36-t8, during treatment",173.4%
same,Body weight in percent of initial body weight (d−4),"[6]; d38-t10, during treatment",175.5%
same,Body weight in percent of initial body weight (d−4),"[6]; d40-t12, during treatment",176.6%
same,Body weight in percent of initial body weight (d−4),"[6]; d43-t15, during treatment",179.7%
same,Body weight in percent of initial body weight (d−4),"[6]; d45-t17, during treatment",181.7%
same,Body weight in percent of initial body weight (d−4),"[6]; d47-t19, during treatment",183.5%
same,Body weight in percent of initial body weight (d−4),"[6]; d50-t22, during treatment",185.5%
same,Body weight in percent of initial body weight (d−4),"[6]; d52-t24, during treatment",187.5%
same,Body weight in percent of initial body weight (d−4),"[6]; d54-t26, during treatment",187.0%
same,block of the effect of orexin A on firing,[1]; 1 micro molar of Almorexant,completely block the effect of orexin A
same,IC50,OxR2 [7],15.6 nM
same,Ki,OxR2 [8],0.9 nM
same,binding and dissociation rates at hOxR1,recombinant human OxR1,fast binding and dissociation rates
same,classification of antagonism at hOxR1,recombinant human OxR1,competitive antagonist
same,"SL-increased anxiety-like behaviors (FIG. 10, enclosed arms)","Wistar female rats [9]; EPM reanalysis, OG almorexant",treated with statistical significance
same,effect on the % OAE,Wistar female rats [9]; [16],no significant effect; also recorded: Did not significantly modify
same,effect on the % TOA,Wistar female rats [9]; [16],no significant effect; also recorded: Did not significantly modify
same,effect on the AE,Wistar female rats [9]; [16],increased; also recorded: Tended to increase
same,anxiety-like behavior,"Wistar female rats [9]; EPM, almorexant 100 mg/kg PO",did not induce effect
same,motor exploratory activity,"Wistar female rats [9]; EPM, almorexant 100 mg/kg PO",increased
same,Number of arm entries (AE),Wistar female rats [9]; [17],23.8
same,Percentage of open arm entries (% OAE),Wistar female rats [9]; [17],38.1%
same,Percentage of time spent in open arms (% TOA),Wistar female rats [9]; [17],34.9%
same,effect on the % Dist Center,Wistar female rats [10]; [18],Did not significantly modify
same,effect on the % Time Center,Wistar female rats [10]; [18],Did not significantly modify
same,effect on the Distance,"Wistar female rats [10]; SL-Almo vs SL-Wat, 100 mg/kg PO, listed as Almorexant",Tended to reduce the decrease in mobility caused by the SL
same,effect on the Distance,"Wistar female rats [10]; SL-Almo vs SL-Wat, 100 mg/kg PO, listed as almorexant",Did not significantly modify
same,% Dist Cent,Wistar female rats [10]; [19],9.9%
same,% Time Cent,Wistar female rats [10]; [19],6.7%
same,Distance travelled,Wistar female rats [10]; [19],8786.5 cm
same,anxiety-like behavior,Wistar female rats [10]; almorexant 100 mg/kg PO,did not induce effect
same,motor exploratory activity,Wistar female rats [10]; almorexant 100 mg/kg PO,did not modify
same,change of Ki over time,rat OxR1,remains relatively unchanged
